Results published in ChEMBL document CHEMBL1201862, “PubChem BioAssay data set” (2004).
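1) Cells in 96-well plates. 2) Compound, 48 h, 5 concentrations. 3) Linear interpolation between surrounding doses. 4) Unreached endpoint = highest concentration. GI50 marks 50% less growth.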 Calls of active or inactive are those of the source. Cut-off read from the data, not from the text of the source: active = GI50 up to about 1.1 µM and inactive = higher.

Legend:
Assay in all cases: growth of human tumour cells (NCI), 48 h
RPMI-8226 = tested on: RPMI-8226
SNB-19 = tested on: SNB-19
COLO 205 = tested on: COLO 205
EKVX = tested on: EKVX
HOP-92 = tested on: HOP-92
A498 = tested on: A498
OVCAR-3 = tested on: OVCAR-3
SK-MEL-28 = tested on: SK-MEL-28
Malme-3M = tested on: Malme-3M
SN12C = tested on: SN12C
SF-295 = tested on: SF-295
IGROV-1 = tested on: IGROV-1
LOX IMVI = tested on: LOX IMVI
OVCAR-8 = tested on: OVCAR-8
OVCAR-5 = tested on: OVCAR-5
K562 = tested on: K562
SR = tested on: SR

Compound | GI50 (RPMI-8226) | GI50 (SNB-19) | GI50 (COLO 205) | GI50 (EKVX) | GI50 (HOP-92) | GI50 (A498) | GI50 (OVCAR-3) | GI50 (SK-MEL-28) | GI50 (Malme-3M) | GI50 (SN12C) | GI50 (SF-295) | GI50 (IGROV-1) | GI50 (LOX IMVI) | GI50 (OVCAR-8) | GI50 (OVCAR-5) | GI50 (K562) | GI50 (SR)
CCCCCCCC(=O)OCC1OC(n2cc(F)c(=O)[nH]c2=O)C(N)C(OC(=O)CCCCCCC)C1O (stereo unspecified) | 23.2 µM (inactive) | 17.5 µM (inactive) | 18.5 µM (inactive) | 19.1 µM (inactive) | 18.4 µM (inactive) | 20.3 µM (inactive) | 20.8 µM (inactive) | 17.3 µM (inactive) | 17.5 µM (inactive) | 17.5 µM (inactive) | 17.5 µM (inactive) | 20.3 µM (inactive) | 18.5 µM (inactive) | 17.8 µM (inactive) | – | – | –
CCCNC(=O)c1cc2ccccc2cc1C(=O)OC | 60.8 µM (inactive) | > 100 µM (inactive) | > 100 µM (inactive) | > 100 µM (inactive) | 59.2 µM (inactive) | > 100 µM (inactive) | > 100 µM (inactive) | > 100 µM (inactive) | > 100 µM (inactive) | > 100 µM (inactive) | > 100 µM (inactive) | > 100 µM (inactive) | – | > 100 µM (inactive) | > 100 µM (inactive) | > 100 µM (inactive) | –
[O-][S+](Cc1cc2c(cc1Br)OCO2)c1ccccc1 (stereo unspecified) | 24.8 µM (inactive) | > 100 µM (inactive) | 34.2 µM (inactive) | > 100 µM (inactive) | 83.9 µM (inactive) | > 100 µM (inactive) | 35.3 µM (inactive) | 98.2 µM (inactive) | 49.1 µM (inactive) | 48 µM (inactive) | > 100 µM (inactive) | 39.4 µM (inactive) | 15.7 µM (inactive) | 41.4 µM (inactive) | > 100 µM (inactive) | 27.5 µM (inactive) | –
CCN(CC)C1CC(O[C@H]2C[C@](O)(C(=O)CO)Cc3c(O)c4c(c(O)c32)C(=O)c2c(OC)cccc2C4=O)OC(C)C1O (stereo partly specified) | 0.0513 µM (active) | 0.103 µM (active) | 0.0387 µM (active) | 0.082 µM (active) | 0.0522 µM (active) | 0.0236 µM (active) | 0.126 µM (active) | 0.0764 µM (active) | 0.0653 µM (active) | 0.045 µM (active) | 0.0512 µM (active) | 0.0859 µM (active) | < 0.0259 µM (active) | < 0.0262 µM (active) | 0.12 µM (active) | 0.0264 µM (active) | –
CN(C)CCN1CCc2c([nH]c3ccccc23)C1c1cccnc1 (stereo unspecified) | > 100 µM (inactive) | > 100 µM (inactive) | – | > 100 µM (inactive) | 63.7 µM (inactive) | > 100 µM (inactive) | > 100 µM (inactive) | > 100 µM (inactive) | – | > 100 µM (inactive) | > 100 µM (inactive) | > 100 µM (inactive) | – | > 100 µM (inactive) | > 100 µM (inactive) | > 100 µM (inactive) | > 100 µM (inactive)
COC(=O)C1=C(C)N(NC(=O)OC(C)(C)C)C(=O)C1=P(c1ccccc1)(c1ccccc1)c1ccccc1 | > 100 µM (inactive) | > 100 µM (inactive) | > 100 µM (inactive) | > 100 µM (inactive) | > 100 µM (inactive) | > 100 µM (inactive) | 66.8 µM (inactive) | – | > 100 µM (inactive) | > 100 µM (inactive) | 67.9 µM (inactive) | > 100 µM (inactive) | > 100 µM (inactive) | > 100 µM (inactive) | > 100 µM (inactive) | 73.5 µM (inactive) | 69 µM (inactive)
CCN(CC)CCOC(c1ccccc1)c1ccccc1.CCOC(=O)Nc1ccc(S(=O)(=O)OC)cc1.CCOC(=O)Nc1ccc(S(=O)(=O)OC)cc1.Nc1ccc(C(=O)O)c(O)c1 | – | > 100 µM (inactive) | > 100 µM (inactive) | > 100 µM (inactive) | > 100 µM (inactive) | > 100 µM (inactive) | > 100 µM (inactive) | > 100 µM (inactive) | > 100 µM (inactive) | > 100 µM (inactive) | > 100 µM (inactive) | > 100 µM (inactive) | > 100 µM (inactive) | > 100 µM (inactive) | > 100 µM (inactive) | > 100 µM (inactive) | –
CC1CCC2[C@@H](C)COC3O[C@]4(C)CCC1C32OO4 (stereo partly specified) | – | > 100 µM (inactive) | > 100 µM (inactive) | > 100 µM (inactive) | > 100 µM (inactive) | > 100 µM (inactive) | > 100 µM (inactive) | > 100 µM (inactive) | > 100 µM (inactive) | > 100 µM (inactive) | > 100 µM (inactive) | > 100 µM (inactive) | > 100 µM (inactive) | > 100 µM (inactive) | > 100 µM (inactive) | 38.9 µM (inactive) | –
COc1ccc2cc3n(c(=O)c2c1)CCc1c-3cc(OC)c(OC)c1OC | > 100 µM (inactive) | > 100 µM (inactive) | > 100 µM (inactive) | > 100 µM (inactive) | > 100 µM (inactive) | – | > 100 µM (inactive) | > 100 µM (inactive) | > 100 µM (inactive) | > 100 µM (inactive) | > 100 µM (inactive) | > 100 µM (inactive) | – | > 100 µM (inactive) | > 100 µM (inactive) | > 100 µM (inactive) | > 100 µM (inactive)
